Consider 89 molecules from a melting point compilation (Tetko et al.; mined from patent text by program, amines drawn as free bases though some values may be those of a salt).

Usually melting point stands for the temperature of the solid-liquid transition. As to `Nc1sc2c(c1C(=O)c1ccc(Cl)c3ccccc13)CCC2`, the melting point is 258 to 260 °C. Consider `CC(N1C(=O)C(=O)N(c2cccc(C#N)c2)C1=S)C(C)(C)C` (centres undefined), for which the melting point was in the range of 168 to 169 °C. In the case of `COC(=O)c1ccc(N2CC(CNC(C)=S)OC2=O)cc1F` (centres undefined), the melting point was 152 to 154 °C. `C1=CC2=c3ccccc3=NC2=C1` showed a melting point of 143 to 145 °C.

Turning to `CC(=O)OCC(C)(C)CS(N)(=O)=O`, the melting point was 106 to 109 °C. In turn, `COC(=O)C1=C(CF)NC(C)=C(C(=O)OC(C)C)C1c1c(F)cccc1C(F)(F)F` (centres undefined) gave a melting point of 82 to 84 °C. `CC(C)(C)Sc1ssc(=S)c1Cl` had a melting point of 45 °C. `Cc1nc(Br)sc1C(=O)N[C@H](C)[C@](O)(Cn1cncn1)c1ccc(F)cc1F` had a melting point of 155 to 163 °C. `O=[N+]([O-])c1c(Cl)cccc1-c1nc2ccccc2n1CC(O)CO` (centres undefined) yielded a melting point of 188 to 189 °C. For `C1CCC(C2CNCCNCCNCCNCCN2)CC1` (centres undefined), the melting point lay within 67 to 69.5 °C.

Regarding `COc1ccc(C2CCN(c3c(C)c(C)c4c(c3C)[C@@H](c3ccc(C)cc3)C(C)(C)O4)CC2)cc1`, the melting point lay in the range of 183 to 185 °C. Molecule `N#CC12CC3CC(CC(Cl)(C3)C1)C2` came in with a melting point of 156 to 157 °C. Regarding `C#CCC1(c2ccccc2)Cc2cc(OCC(=O)O)c(Cl)c(Cl)c2C1=O` (centres undefined), the melting point was in the range of 236 to 240 °C.

On to `CCCCN1CCC(CCC(=O)c2ccc(N)nc2OC)CC1`, for which the melting point fell in the range of 85 to 89 °C. Molecule `CC(C)(C)C(=O)Nc1ccc(O)cc1` came in with a melting point of 168 to 170 °C. Turning to `COCCNc1nc(-n2ccnc2)nc2ccc(C(C)=O)cc12`, the melting point was in the range of 208 to 210 °C. As to `Cc1ccc(-c2nc(CCC(O[Si](C)(C)C(C)(C)C)c3ccc(C=O)s3)c(C)o2)cc1` (centres undefined), the melting point lay within 122 to 124 °C. `CS(=O)(=O)c1cccc(-c2ccccc2N)c1` gave a melting point of 114 to 115 °C.

In the case of `O=C(CCCCCCCCCCCNC(=O)OCc1ccccc1)OC(=O)CCCCCCCCCCCNC(=O)OCc1ccccc1`, the melting point was 72 to 73 °C. On to `CCCC12CCC(=O)C=C1c1c(cc(OCC(=O)OCC)c(Cl)c1Cl)C2OC(C)=O` (centres undefined), for which the melting point was 128 to 130 °C.

On to `Cc1c(C(=O)Cl)ccc2c1C(=O)N(C)S2(=O)=O`, for which the melting point lay in the range of 149 to 150 °C. Consider `Cc1oc(-c2ccco2)nc1COc1ccc(CON=C(CCC(=O)O)c2ccccc2)cc1`, for which the melting point is 124 to 125 °C.

On to `COC=C(C(=O)OC)c1ccccc1CBr`, for which the melting point is 88 to 90 °C. The molecule `Cc1cccc(NC(=O)NC2N=C(C3CC3)c3cccc(C)c3N(CC(=O)C3CCCCC3)C2=O)c1` (centres undefined) came in with a melting point of 144 °C. As for `CNC(=O)c1ccccc1C(O)(c1ccc(Cl)cc1)c1ccccc1CN(C)C` (centres undefined), the melting point lay within 154 to 156 °C. For the molecule `CN(C)c1c(C#N)c(N)nn1C`, the melting point is 100 to 102 °C. Take `Clc1ccc(CCOc2ncnc3ccccc23)cc1`: the melting point was 57 to 58 °C. With `O=[N+]([O-])c1cccc(NC(=S)NCc2cccnc2)c1` the figure was 159 °C; with `Cc1cccc(NC(=O)NC(Cc2ccccc2)C(=O)O)c1` (racemic), 182 °C; with `CNC(=O)c1ccc(F)c(Cl)c1`, 108 to 110 °C. To `CCc1nccc(NC(=O)Cc2ccc(Oc3ccc([N+](=O)[O-])cn3)cc2)c1Cl` belongs 128 to 131 °C; to `CCOC(=O)c1ncn2c1CN=C(NCC(OC)OC)c1sccc1-2`, 134 °C; to `O=C(c1ccc(-c2ccccc2)cc1)N1Cc2cccn2Cc2ncccc21`, 171 to 172 °C.

The molecule `CCCCOc1c(CNC(=O)OC(C)(C)C)n(CC(C)C)c(=O)c2ccc(C(=O)OC)cc12` returned a melting point of 148 to 149 °C. Consider `Cc1oc2c(C)cc(C(=O)O)cc2c1C`, for which the melting point lay within 235 to 237 °C. `O=S(=O)(Nc1nc2ncccn2n1)c1ccccc1Cl` registered a melting point of 254 to 256 °C.

`CCOC(=O)c1ccc(NC(=O)Cc2csc3nc(C(=O)NCc4cccc(OC)c4)[nH]c(=O)c23)cc1` showed a melting point of 222 to 223 °C. `N#CC(C#N)=C1Sc2nc3ccc(C#N)cc3nc2S1` registered a melting point of 278 to 281 °C. To `CN1CCC(C2(O)CC(c3ccc(F)cc3)c3ccc(F)cc32)CC1` (centres undefined) belongs 146 to 147 °C; to `O=[N+]([O-])c1ccc(Cl)cc1Nc1ccccc1Cl`, 97 °C. To `CN1CCN(c2cc(Cl)cc3c2c(=O)n(Cc2cccc(Br)c2)c(=O)n3Cc2ccccc2)CC1` belongs 154 to 157 °C. `Clc1nsnc1N1CCOCC1`: the melting point fell in the range of 43 to 45 °C. To `Cc1cc2c(Cl)c(C#N)cnc2s1` belongs 101 to 102 °C; to `CCOCc1nc2cnc3ccccc3c2n1CCCCC(N)=O`, 157 to 158 °C; to `CCOC(=O)c1cnc2c(cnn2Cc2ccco2)c1O`, 103 to 106 °C.

`N#CCCC(CCC#N)(CCC#N)[N+](=O)[O-]` returned a melting point of 114 °C. With `Cc1nc(N)nc(N)c1-c1cc(C#N)ccc1Cl` the figure was 239 to 241 °C; with `CCOC(=O)C(=O)c1csc(NC(=O)Nc2ccccc2F)n1`, 219 to 225 °C. The molecule `COC(=O)[C@@H]1CCCN1S(=O)(=O)c1ccc(Cl)c(COc2cccc3ccc(C)nc23)c1Cl` gave a melting point of 136 °C.

As for `CCCn1c(=O)c2c(nc(C=Cc3cc(OC)c(OC)cc3S(=O)(=O)N(CC)CC)n2C)n(CCC)c1=O`, the melting point lay within 227 to 228 °C. The molecule `CCn1cc(C(=O)O)c(=O)c2cnc(N3CCN(Cc4ccc(NC(C)=O)cc4)CC3)nc21` showed a melting point of 216 to 219 °C. For the molecule `O=C1CCC(=O)N1c1cccc(OCc2nc3ccccc3s2)c1`, the melting point lay in the range of 175 to 176 °C. Molecule `O=C1C=C2CCCCC2N1c1ccc(OCCN2CCCCC2)c(Cl)c1` (centres undefined) returned a melting point of 98 °C. `NS(=O)(=O)c1cc(N(CCCl)CCCl)c([N+](=O)[O-])cc1[N+](=O)[O-]`: the melting point is 153 to 154 °C. As to `O=C(O)C1=Cc2c(F)cccc21`, the melting point is 81 to 83 °C. With `COc1cc2c3c(c1)c(=O)c(Cc1cccnc1)cn3-c1cc(Br)ccc1S2` the figure was 169 to 173 °C.

Molecule `Clc1ccc2c(Nc3ccc(CNC4CCN(Cc5ccccc5)CC4)cc3)ccnc2c1` had a melting point of 160 to 164 °C. `Cc1cc(O)c2c(c1)C(C)(C)CC2(C)C` displayed a melting point of 66 °C. With `CC(C)(OCCCCCCCCc1csc(-c2ccccc2)n1)C(=O)O` the figure was 64 to 70 °C.

In turn, `CC(C)N1C(=O)c2ccccc2N(C#N)S1(=O)=O` displayed a melting point of 99 to 101 °C. With `O=C(NCCCN1CCOCC1)c1ccccc1C(c1ccc(O)cc1)c1ccc(O)cc1` the figure was 120 to 122 °C; with `C#CC12CC3CC(C1)CC(C#C)(C3)C2`, 46 °C; with `Cc1cc2cc(CN3CCC(C(=O)N4CCCCC4)CC3)cnc2cc1NC(=O)c1ccc(-c2ccc(F)cc2)cc1`, 250 °C. On to `O=C(c1ccccc1)c1ccc(F)c([N+](=O)[O-])c1`, for which the melting point came out at 59 °C. For `CCOC(=O)/C(=C\Nc1cc(OC)ccc1OC)c1ccc(OC)cc1`, the melting point lay in the range of 65 to 66 °C.

Regarding `Cc1cc(-c2cc(C(F)F)n3ncc(C(=O)Nc4cccc(S(C)(=O)=O)c4)c3n2)ccc1C(F)(F)F`, the melting point is 261 °C.

`Brc1cccc(-c2cc3nccnc3[nH]2)c1` showed a melting point of 247 to 249 °C.

In turn, `Cc1cc(Cc2ccc(NC(=O)NCCO)cc2)n(C)c1C(=O)c1ccc(Cl)cc1` gave a melting point of 210 °C. As to `CC(C)(C)OC(=O)CN(C(=O)CNC(=O)Nc1cccc(CC(=O)O)c1)c1ccccc1C(=O)c1ccccc1`, the melting point lay within 96 to 98 °C. For `CCOC(=O)C(=CNc1cnc2ccccc2n1)c1ccccc1`, the melting point was in the range of 193 to 194 °C.

In turn, `CCOc1ccc(/C=C/c2nc3c([nH]2)c(=O)n(CC)c(=O)n3CC)cc1` showed a melting point of 297 to 299 °C. Molecule `CCc1nnc2c(N(CC)CC)nc3cc(Cl)c(Cl)cc3n12` displayed a melting point of 147 to 149 °C. Regarding `Cc1cc(C)nc(S(=O)(=O)Nc2c(Cl)ccc(C)c2Cl)n1`, the melting point was in the range of 234 to 235 °C. `CCCn1c(=O)c2[nH]c(/C=C/c3cc(OC)c(OC)cc3Br)nc2n(CCC)c1=O` had a melting point of 248 to 250 °C. The molecule `Cc1cccc(C)c1N1CC(=N)N(c2c(C)cccc2C)C1C(=O)c1ccc(Cl)cc1` (centres undefined) returned a melting point of 155 to 156 °C. `COC(=O)CNC(=O)[C@H](CSC(=O)c1ccccc1)NC(=O)CNC(=S)CC(=O)c1ccccc1` came in with a melting point of 181 to 183 °C. Consider `Cc1nc2nc(C(=O)NO)cc(S)n2n1`, for which the melting point lay within 178 to 179 °C. `COc1ccc(-c2cccc3ccsc23)cc1` registered a melting point of 74 to 75 °C. For the molecule `CC(C)(C)C(=O)c1c[nH]c2ncc(-c3cccc(C#N)c3)nc12`, the melting point fell in the range of 248 to 249 °C. For `Cc1cc2cc(C(=O)O)[nH]c2cc1C`, the melting point was 266 °C. As for `CC(O)(c1nc(-c2ccc(F)cc2)c(-c2ccc(F)cc2)[nH]1)C(F)(F)F` (centres undefined), the melting point is 191 to 192 °C. On to `Cc1ccc(S(=O)(=O)C2(CCCC#Cc3cccnc3)SC(=O)NC2=O)cc1` (centres undefined), for which the melting point is 173 to 176 °C.

`CC(C)(C)c1cc(CN(c2cccnc2)S(=O)(=O)c2ccc(F)cc2)cc(C(C)(C)C)c1O`: the melting point fell in the range of 137 to 138 °C. The molecule `CCOc1cc2c(c3c1OC(C)(C)C3)C(c1ccccc1)=NC(C)(CN1C(=O)c3ccccc3C1=O)C2` (centres undefined) came in with a melting point of 187 to 189 °C. As to `Cc1cccc(-c2nc(N)sc2-c2ccnc(-c3ccc(OCc4cn(C)cn4)cc3)c2)n1`, the melting point was in the range of 226 to 228 °C. The molecule `O=C(CCN1CCCCC1)Nc1ccc2c(c1)C(=O)c1cc(NC(=O)CCN3CCCCC3)ccc1C2=O` yielded a melting point of 240 °C.

The molecule `Cc1cc(OCc2ccc(-c3ccccc3-c3nnn[nH]3)cc2)c(C(=O)O)c(C)n1` had a melting point of 237 °C. For `Cc1cc(C)nc(NC(=O)NS(=O)(=O)c2ccccc2-c2ccccc2)n1`, the melting point is 78 °C. The molecule `O=C(CCl)Nc1ccc2c(c1NC(=O)c1cccc(Cl)c1)C(=O)c1ccccc1C2=O` had a melting point of 188 to 189 °C.
